In patent publication US20130296347A1, “Compositions and Methods for Prophylaxis and Treatment of Addictions” (Omeros Corporation, priority 2007, published 2013):
Entries after “also recorded” stand apart in the source; their conditions may differ.

Legend:
msP rats = assay: Acute voluntary ethanol intake, free choice 10% alcohol 24 hours a day; assay type: in vivo, rat
Description: MsP rats were first trained to drink 10% (w/v) alcohol for 24 hours a day (free choice between water and ethanol). […] Before starting the treatment, rats were trained to gavage administration procedures for three days, during which they received vehicle (distilled water). […] Drinking experiments started at the beginning of the dark cycle. Alcohol, water and food intakes were monitored at 2, 8 and 24 hours after ethanol was made available.
Before starting the treatment, rats were trained to gavage and IP administration procedures for three days. Experiment was conducted in a between subject design (n=22). […] Drinking experiments started at the beginning of the dark cycle. Alcohol, water and food intakes were monitored at 2, 8 and 24 hours after ethanol was made available.
The drinking experiments were conducted at the beginning of the dark cycle, and alcohol, water and food intakes were monitored at 2, 8 and 24 hours after ethanol was made available.
(§1) MsP rats were first trained to drink 10% (w/v) alcohol for 24 hours a day (free choice between water and ethanol). […] Rats treated with drug vehicles served as a control. Before starting the treatment, rats were trained to gavage administration for three days, during which they received drugs vehicle (distilled water). […] Drinking experiments started at the beginning of the dark cycle. Alcohol, water, and food intakes were monitored at 2, 8 and 24 hours after ethanol was made available.
as §1, with “water” for “water,”
as §1, with “water” for “water,”
as §1, with “water” for “water,”
as §1, with “water” for “water,”
as §1, with “water” for “water,”

Wistar rats = assay: Alcohol withdrawal score after six days of intermittent alcohol intoxication; assay type: in vivo, rat
Description: Male Wistar rats were subjected to a six days of intermittent alcohol intoxication. […] The first ethanol dose was given at the beginning of the dark phase. The other 3 daily doses were administered at intervals of 3 hours. Rats were not injected during the light phase of the light/dark cycle. […] Behavioural signs of withdrawal included: (1) presence of the ventromedial distal flexion response; (2) tail stiffness/rigidity; and (3) tremors (Schulteis et al. 1995). […] Schulteis, et al., 1995). All signs were cumulated to yield an overall withdrawal severity score.

alcoholic patients = assay: Observational study of alcohol abuse in human patients; assay type: in vivo
Description: ACT)+psychotherapy. […] Patients were instructed to record in a personal logbook the number of drinks per day and the time of the day drinks occurred. At the end of the study, the logbooks were returned to the clinical personnel who analyzed the data. […] In addition, biochemical parameters to ascertain alcohol detoxification and to measure recovery of physiological functions (i.e., hepatic function) were monitored monthly. Hematological parameters measured included: mean corpuscular volume (MCV); gamma-GT; aspartate aminotransferase (AST); alanine aminotransferase (ALT); and carbohydrate-deficient transferring (CDT). MCV and CDT are biomarkers for ethanol consumption, and GGT, ALT and AST are biomarkers for hepatic functionality. Data were analyzed by analysis of variance followed by Newman-Keuls post hoc tests when appropriate.

Long Evans rats = assay: FR5 nicotine self-administration; assay type: in vivo, rat; conditions: pioglitazone 30 mg/kg OS 12 hours and 1 hour before session; p<0.05
Description: Bupropion hydrochloride (Sigma, Milan, Italy) was dissolved in saline. Nicotine tartrate (Sigma, Milan, Italy) was dissolved in isotonic saline at a concentration of 0.03 mg/0.1 ml free base. The pH of the nicotine solution was adjusted to 7 with dilute NaOH. Drug or vehicle solution was infused at a volume of 0.1 ml over 4 s.
Male Long Evans rats weighing between 180 and 200 g at the time of arrival in the lab were used. The rats were housed in groups of three in a humidity- and temperature-controlled (22° C.) vivarium on a 12 h:12 h reverse light/dark cycle (on, 17:00; off, 05:00) with ad libitum access to food and water. One week after arrival, the rats were subjected to surgery, and a silastic catheter was implanted into the right jugular vein.
After the successful completion of cocaine training, rats were allowed to self-administer nicotine at the 0.03 mg/kg/infusion dose by switching the delivery of cocaine for the delivery of a nicotine infusion. Nicotine self-administration training continued until stable baseline of responding was established (less than 20% variation for 3 consecutive days calculated for each single rat). At this point, drug testing began.
. […] A 3-day interval was allowed between drug testing. During these intervals, nicotine self-administration was continued to re-establish lever responses baseline.
Statistical significance was set at P<0.05

CD mice = assay: Tail-flick test, morphine-induced analgesic tolerance; assay type: in vivo, mouse; conditions: pioglitazone alone 10 or 30 mg/kg
Description: All procedures were conducted in adherence to the European Community Council Directive for Care and Use of Laboratory Animals.
Mice were divided into 6 groups. Group 1 (n=8) received drug vehicles (veh/veh). […] Animals were treated twice daily (between 9:00 and 10:00 a.m. and 9:00 and 10:00 p.m.).
Morphine hydrochloride was purchased from Salars (Milano, Italy). Morphine (30 mg/kg) was dissolved in NaCl […] and was injected intraperitoneally (IP) twice a day at the indicated doses in a volume of 0.2 ml per mice. […] It was dissolved in distilled water and was administered per o.s. at the doses of 10 mg/kg and 30 mg/kg in a volume of 0.6 ml per mice.
Two different tests were used to monitor analgesic responses. The tail-flick test was performed 45 min after the morning injection of morphine, and the tail-immersion test was performed 45 min after the evening injection of morphine.
For the tail-flick test, each mouse was gently restrained in a soft tissue pocket, and the tail (1 cm from the tip) was exposed to a hot light beam. Latency for tail-flick was measured with a 6 seconds cut-off time. For the tail-immersion test, each mouse was restrained in a soft tissue pocket, and the distal half of the tail dipped into a water bath set at 52 C°. Latency for removing the tail from the hot water was measured with a 10 seconds cut-off time.

[1] = pioglitazone 10 and 30 mg/kg, p<0.01
[2] = pioglitazone 30 mg/day or naltrexone 50 mg/day + psychotherapy

For CCc1ccc(CCOc2ccc(CC3SC(=O)NC3=O)cc2)nc1.Cl (centres unmarked) [pioglitazone], the “ethanol intake, drug alone (post-hoc)” value (msP rats; low dose given at 12 hours and 1 hour before access, pioglitazone 10 mg/kg OS, partner drugs at doses of the examples) was “did not significantly modify”, the “ethanol intake at 2 hours, drug alone” value (msP rats; pioglitazone 10 mg/kg OS, topiramate 30.0 mg/kg OS, p<0.05) was “significant reduction” and the “ethanol consumption at 2 hours” value (msP rats; pioglitazone 30 mg/kg OS) was “significantly reduced”. The “ethanol consumption at 8 hours” value (msP rats; pioglitazone 30 mg/kg OS) was “significantly reduced”, the “ethanol consumption at 24 hours” value (msP rats; pioglitazone 30 mg/kg OS) was “significantly reduced” and the alcohol withdrawal signs (Wistar rats; pioglitazone 10 mg/kg and 30 mg/kg, 12 hours and 1 hour before rating) was “significantly reduced”. For the same compound, the tail rigidity (Wistar rats; [1]) was “highly significant effect”, the tremors (Wistar rats; [1]) was “highly significant effect” and the ventromedial limb retraction (Wistar rats; [1]) was “highly significant effect”. The “rats showing seizures during withdrawal” value (Wistar rats; pioglitazone treated rats (two out of 7 vehicle animals showed convulsion)) was “none of the 12 rats”, the “hepatic parameters (GGT, ALT, AST)” value (alcoholic patients; 2-month treatment) was “more pronounced” and the “Anxiety Score, STAY-Y1 scale (mean score values)” value (alcoholic patients; T = 1.1 (month 1, week 1)) was 58. For the same compound, the “Depression Scale M.A.D.R.S (mean score values)” value (“Depression Scale M.A.D.R.S” for short) (alcoholic patients; T = 1.3) was 10, the “Depression Scale M.A.D.R.S” value (alcoholic patients; T = 1.4) was 11 and the “Depression Scale M.A.D.R.S” value (alcoholic patients; T = 2.3) was 10. The “depression score, time course” value (alcoholic patients; during treatment with pioglitazone 30 mg/day) was “decreased starting from the second week of treatment”, the “effect on daily drinks, comparison of drugs” value (alcoholic patients; month 2 week 2 (T2.2) to month 2 week 4 (T2.4), p<0.001) was “significantly higher than that of naltrexone” and the “blood parameters (MCV, CDT, GGT, ALT, AST)” value (alcoholic patients; pioglitazone 30 mg/day) was “rapid normalization”. The “progressive decrease in anxiety score during treatment” value (alcoholic patients; pioglitazone 30 mg/day) was “highest effect”, the “progressive decrease in obsessive compulsive score for alcohol (OCDS)” value (alcoholic patients; pioglitazone 30 mg/day) was “extremely robust; also recorded: consistently reduced” and the “daily ethanol intake (number of daily drinks)” value (alcoholic patients; [2]) was “significantly reduced”. For the same compound, the “number of abstinence days” value (alcoholic patients; [2]) was “increased; also recorded: highest effect”, the “CDT and AST, naltrexone versus pioglitazone” value (alcoholic patients; post hoc) was “No significant difference” and the OCDS versus controls (alcoholic patients; post hoc, P<0.001) was “statistically significant difference”. The “all five blood biomarkers versus controls (psychotherapy alone)” value (alcoholic patients; post hoc, P<0.001) was “statistical difference”, the “reducing the values of MCV, GGT and ALT, comparison of drugs” value (alcoholic patients; post hoc, P<0.001) was “more effective than naltrexone” and the “MADRS depression score, pioglitazone versus naltrexone” value (alcoholic patients; post hoc, p<0.001) was “significantly different”. For the same compound, the “OCDS, pioglitazone versus naltrexone” value (alcoholic patients; post hoc, p<0.001) was “more effective than naltrexone”, the “anxiety score, pioglitazone versus naltrexone” value (alcoholic patients; post hoc, p<0.001) was “more effective than naltrexone” and the “number of abstinence days, comparison of drugs” value (alcoholic patients; second month of therapy (T 2.1-T2.4)) was “significantly higher”. The nicotine self-administration (Long Evans rats) was “significantly reduced” and the “analgesic responses (tail-flick)” value (CD mice) was “did not differ from controls”.
